Results taken from article PMC5687273 (Cell reports, 2017).

Biological target: Cdk7^as (Homo sapiens, UniProt P50613, D92E/F91G)
Experiment: in vitro kinase assay on GST-CTD, autoradiography
Type: biochemical

Cdk7^as, sequence (P50613 2-346 F91G/D92E): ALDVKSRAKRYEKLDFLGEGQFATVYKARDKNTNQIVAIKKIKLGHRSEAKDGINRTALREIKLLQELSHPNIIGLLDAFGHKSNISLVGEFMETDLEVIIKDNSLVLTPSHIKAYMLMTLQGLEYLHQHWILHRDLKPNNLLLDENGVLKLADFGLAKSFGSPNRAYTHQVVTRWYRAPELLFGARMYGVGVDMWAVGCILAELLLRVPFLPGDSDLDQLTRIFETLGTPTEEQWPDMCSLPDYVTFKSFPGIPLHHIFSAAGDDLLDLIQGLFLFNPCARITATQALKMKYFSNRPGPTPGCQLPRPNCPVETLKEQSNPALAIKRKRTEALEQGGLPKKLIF
Cdk7^as, sequence (P51946 whole entry partner): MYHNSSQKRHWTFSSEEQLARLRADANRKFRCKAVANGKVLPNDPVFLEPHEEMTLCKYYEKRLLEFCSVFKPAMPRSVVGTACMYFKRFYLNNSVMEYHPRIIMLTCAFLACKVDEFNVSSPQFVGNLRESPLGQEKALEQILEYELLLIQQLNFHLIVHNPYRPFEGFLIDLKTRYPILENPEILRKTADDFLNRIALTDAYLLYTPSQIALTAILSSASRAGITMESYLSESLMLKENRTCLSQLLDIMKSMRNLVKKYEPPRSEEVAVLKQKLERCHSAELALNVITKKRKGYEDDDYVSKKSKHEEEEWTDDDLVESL
Cdk7^as, sequence (P51948 whole entry partner): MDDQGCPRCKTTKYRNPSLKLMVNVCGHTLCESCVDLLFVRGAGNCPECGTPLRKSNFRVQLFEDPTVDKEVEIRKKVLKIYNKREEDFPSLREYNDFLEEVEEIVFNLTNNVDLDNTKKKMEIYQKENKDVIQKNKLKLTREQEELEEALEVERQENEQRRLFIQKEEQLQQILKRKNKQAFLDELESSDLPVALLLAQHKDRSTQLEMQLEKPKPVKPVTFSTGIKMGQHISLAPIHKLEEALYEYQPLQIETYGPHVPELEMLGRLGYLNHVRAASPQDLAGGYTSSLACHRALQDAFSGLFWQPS

Q: For `Cc1cccc(Cc2nn(C(C)(C)C)c3ncnc(N)c23)c1` [3-MB-PP1], which IC50 is on record?
A: ~10 nM
